Structures can show the parent of a compound that is named as a salt.
Tests used:
Assay type in all cases: in vivo, rat
MK801 treated rats [1] = test: Pre-Pulse Inhibition (PPI) paradigm, MK801 animal model
Protocol: (§1) Acoustic Startle Response (ASR) and Pre-Pulse Inhibition (PPI): Both experimental paradigms were performed in a room that was adjacent to the laboratory facilities and the animal stall and that was not used for other experiments. The animals were tested in squad of two with startle chambers counterbalanced across the different experimental groups. Startle response and prepulse inhibition were measured using two ventilated startle chambers (SR-LAB system, San Diego Instruments, San Diego, Calif.). Each chamber consisted of a Plexiglas cylinder resting on a platform inside a sound-attenuated, ventilated chamber. A high-frequency loudspeaker inside the chamber produced both a continuous broadband background noise of 70 dB and the various acoustic stimuli. Movement inside the tube was detected by a piezoelectric accelerometer below the frame. The amplitude of the whole body startle to an acoustic pulse was defined as the average of 100 one-msec accelerometer readings collected from pulse onset. These signals were then digitized and stored by a computer. Sound levels within each test chamber were measured routinely using a sound level meter (Radio Shack) to ensure consistent presentation. The SR-LAB calibration unit was used routinely to ensure consistent stabilimeter sensitivity between test chambers and over time (Swerdlow and Geyer, 1998, Schizophrenia Bulletin, 24(2), 285-301).
(§2) Fifteen minutes before the behavioral procedures conducted at the fourth day, the subject was injected i.p. with an 0.1 mg/kg dose of MK801 or saline, for a total volume of 1 ml per kg of body weight. Next, the subjects passed the three behavioral procedures, described in the following paragraphs.
(§3) ASR and PPI were measured using two startle chambers, with each chamber consisting of a Plexiglas cylinder resting on a platform inside a sound-attenuated, ventilated chamber (see also materials section). The animals were tested in pairs with startle chambers counterbalanced across the different experimental groups.
PPI of the startle response was used as a measure of sensorimotor gating, with the startle chambers used to assess the ability of prepulse stimuli to block the startle response. […]
Pre-Pulse Inhibition (PPI): Startle magnitude is expressed in all the procedures as arbitrary units. Percent PPI (% PPI) was calculated as the mean startle magnitude to stimulus-alone minus the mean startle magnitude to prepulse-stimulus trials, all divided by the mean stimulus-alone trials, and multiplied by 100. The overall mean % PPI was calculated for the four prepulse intensities (72, […], 80, 84 dB). Results were analyzed by two-way ANOVA with a between-subject measure of ‘group’ (difference the treatment groups) and ‘prepulse intensity’ (72, 76, 80, 84 dB).

MK801 treated rats [2] = test: Morris Water Maze (MWM) task, MK801 animal model of schizophrenia; settings: MK801 alone vs saline group, p<0.001
Protocol: Morris Water Maze (MWM): The MWM consisted of a water pool (diameter=1.8 m; depth=0.6 m) containing water at 26±1° C. A hidden platform was located 1.5 cm below the water surface. Within the testing room, only distal visuo-spatial cues were available to the rats for location of the submerged platform. A video camera was placed above the center of the pool for tracking the rat, and a video tracking system (Noldus Information Technology b.v., Wageninpen, The Netherlands) with online digital output, directly fed data into a computer and analyzed. Data were analyzed by using an Etho-Vision automated tracking system (Noldus Information Technology).
as §2
The MWM, a hippocampal-dependent visuo-spatial learning task, was used to assess the subjects' spatial learning/memory. The ability of an animal to locate a hidden platform submerged under water by using extra-maze cues from the test environment was examined. The rats were trained in a pool 1.8 m in diameter and 0.6 m high, containing water at 26±1° C. A 10 cm square transparent platform was hidden in a constant position in the pool submerged 1 cm below the water level. Within the testing room only distal visuo-spatial cues were available to the rats for location of the submerged platform.
Rats were given four trials per day, to find the hidden platform (acquisition phase). The escape latency, i.e., the time required by the rat to find and climb onto the platform, was recorded for up to 120 sec. Each rat was allowed to remain on the platform for 30 sec, and was then removed to its home cage.
Morris Water Maze (MWM): Escape latency, the time between placing the rat in the pool until it located the platform, was measured during behavioral testing. The escape latency was analyzed by means of […] repeated measures analysis of variance (ANOVA) with a between-subjects measure of ‘group’ (treatment group) and a within-subjects measure of ‘trail’ (effects amongst groups in the four different trials).
The MWM test was then performed (see FIG. 1 for results). A significant main effect of ‘group’, ‘trail’ and a significant ‘group’×‘trails’ interaction was found in the repeated measured ANOVA for the MWM task [F(5,35)=9.699, p<0.001; F(3,33)=31.551, p<0.001; F(15,91)=1.824, p<0.05; respectively].

MK801 treated rats [3] = test: Habituation of the Acoustic Startle Response (ASR), MK801 animal model
Protocol: as §1, §2, §3
The ASR test measured the ability of the animal to habituate to repetitive loud pulses of noise. […] Movement inside the tube was detected by a piezoelectric accelerometer below the frame. The amplitude of the whole body startle to an acoustic pulse was defined as the average of 100 one-msec accelerometer readings collected from pulse onset. […]
Acoustic Startle Response (ASR): The decrease in ASR in the groups was calculated as the percent of amplitude decrease between the mean of the first five amplitude values and the mean of the last 25 amplitude values.
Percent habituation=100×[(average startle amplitude in Block 1)−(average startle amplitude in Block 5)/(average startle amplitude in Block 1)]. Results were analyzed by two-way ANOVA a between-subject measure of ‘group’ (treatment group).

[4] = drug+MK801 0.1 mg/kg i.p., minocycline 35 mg/kg x 3 days pretreatment, haloperidol 0.4 mg/kg i.p.

Row | SMILES | percent of PPI (% PPI) (MK801 treated rats [1]; MK801 alone vs saline treatment group) | escape latency (MK801 treated rats [2]) | percent habituation of the startle response (% habituation) (MK801 treated rats [3]; MK801 alone vs saline treated rats) | percent of PPI (% PPI) (MK801 treated rats [1]; [4]) | percent habituation of the startle response (% habituation) (MK801 treated rats [3]; [4])
1 | C[C@]12N[C@H](Cc3ccccc31)c1ccccc12 [MK801, Dizocilpine maleate] | induced a significant deficit in the PPI | longer escape latencies | induced a significant deficit in the habituation of ASR |  | 
2 | O=C(CCCN1CCC(O)(c2ccc(Cl)cc2)CC1)c1ccc(F)cc1 [haloperidol] |  |  |  | lack of significant effects | not able to prevent the deficits induced by MK801
